Experimental data as given in US8614068B2, “Process for producing hepcidin” (Hellenic Pasteur Institute, priority 2007, dated 2013).
Ends that are not written are not given here.

Experiments:
TfR1 = test: Western blot of TfR1 expression in macrophages; type: cell-based, murine; conditions: RAW 264.7, 10 μM, 4 h at 37° C.
Description: (§1) A, RAW 264.7 macrophages were treated with 11 μM and 10 μM of synthetic hepcidin-25 (having the sequence of SEQ ID NO. 2) and Hep-25His (having the sequence of SEQ ID NO. 6) for 4 h at 37° C. or with PBS as negative control. Cell lysates were subjected to 8% SDS PAGE and Western Blot with antibodies against TfR1, Ferroportin and actin as loading control. B, The signal density of ferroportin, TfR1 and actin protein bands from two independent experiments were quantified by densitometry and their intensity relative to actin was calculated. […] Hep25-His, negative peptide and PBS was incubated with Raw 264.7 macrophages, followed by cross-linking with DSS. Cell lysates were incubated with Ni2-NTA and eluates were analyzed by Western blot using anti-FPN1 Ab. […] HEK293-Fpn cells were induced with ponasterone for 24 h and then treated with Hep25-His or synthetic hepcidin 25 (s. Hep25) for 3 h. Fluorescence was visualized with a Leica TCS confocal microscope.
Western blotting—1×10^6 cells (RAW 264.7, THP-1 or J774) were plated in […] plates and after 12-20 h cells were treated with hepcidins in serum-free DMEM for 4 h, at 37° C. Afterwards, cells were re-suspended in lysis buffer (1% Triton, 25 mM Hepes pH 7.4, 150 mM NaCl, 10% Glycerol, 5 mM EDTA, 0.5 mM PMSF, protein inhibitors (Roche, Mannheim, Germany) and quantified by Bradford assay (Biorad, Hercules, Calif.). 30 μg of cell lysate was analyzed on 8% SDS-PAGE. Proteins were transferred to Hybond C nitrocellulose membrane (Amersham Biosciences, Piscataway, N.J.) and the membranes were incubated with the primary antibodies rabbit anti-ferroportin (Alpha Diagnostics, San Antonio, Tex.), mouse anti-TfR1 (Zymed, Invitrogen, Carlsbad, Calif.) and mouse anti-β actin (Santa Cruz Biotech, Santa Cruz, Calif.), in a dilution of 1:1000, overnight at 4° C. […] Specific signal was detected with a chemiluminescence assay kit (ECL, Amersham Biosciences, Piscataway, N.J.). The bands were quantified by densitometry using the Quantity-One (Biorad, Hercules, Calif.) software. […]

bacteria ML35p = conditions: at 30 μM concentration; cited from earlier work
ferroportin (FPN1) = target: T1, ferroportin (FPN1) (Mus musculus, UniProt Q9JHI9); test: Western blot of ferroportin expression in macrophages; type: cell-based, murine; conditions: data not shown
T1 construct: endogenous in cells; host or cells: RAW 264.7 murine macrophages
T1 sequence (Q9JHI9 1-570): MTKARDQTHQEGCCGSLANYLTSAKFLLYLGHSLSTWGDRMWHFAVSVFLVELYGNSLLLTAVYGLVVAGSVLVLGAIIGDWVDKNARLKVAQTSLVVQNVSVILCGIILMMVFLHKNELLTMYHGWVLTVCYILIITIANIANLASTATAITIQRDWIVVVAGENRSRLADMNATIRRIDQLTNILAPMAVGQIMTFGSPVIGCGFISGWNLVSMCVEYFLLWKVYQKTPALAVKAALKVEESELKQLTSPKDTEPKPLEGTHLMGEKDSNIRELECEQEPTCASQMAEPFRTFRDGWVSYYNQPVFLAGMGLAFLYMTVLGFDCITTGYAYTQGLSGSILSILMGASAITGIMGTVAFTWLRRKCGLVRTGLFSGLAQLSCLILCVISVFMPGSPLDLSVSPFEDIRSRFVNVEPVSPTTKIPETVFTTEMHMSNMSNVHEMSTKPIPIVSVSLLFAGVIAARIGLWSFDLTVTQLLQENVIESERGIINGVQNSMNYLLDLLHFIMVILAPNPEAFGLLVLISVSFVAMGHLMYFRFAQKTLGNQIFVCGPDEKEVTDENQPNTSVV
Description: as §1
Western blotting—1×10^6 cells (RAW 264.7, THP-1 or J774) were plated in […] plates and after 12-20 h cells were treated with hepcidins in serum-free DMEM for 4 h, at 37° C. Afterwards, cells were re-suspended in lysis buffer (1% Triton, 25 mM Hepes pH 7.4, 150 mM NaCl, 10% Glycerol, 5 mM EDTA, 0.5 mM PMSF, protein inhibitors (Roche, Mannheim, Germany) and quantified by Bradford assay (Biorad, Hercules, Calif.). 30 μg of cell lysate was analyzed on 8% SDS-PAGE. Proteins were transferred to Hybond C nitrocellulose membrane (Amersham Biosciences, Piscataway, N.J.) and the membranes were incubated with the primary antibodies rabbit anti-ferroportin (Alpha Diagnostics, San Antonio, Tex.), mouse anti-TfR1 (Zymed, Invitrogen, Carlsbad, Calif.) and mouse anti-β actin (Santa Cruz Biotech, Santa Cruz, Calif.), in a dilution of 1:1000, overnight at 4° C. After washing, the membranes were incubated with anti-rabbit and anti-mouse secondary antibodies conjugated with HRP, in a dilution of 1:5000 (DakoCytomation, Carpinteria, Calif.), for 1 h at room temperature. Specific signal was detected with a chemiluminescence assay kit (ECL, Amersham Biosciences, Piscataway, N.J.). The bands were quantified by densitometry using the Quantity-One (Biorad, Hercules, Calif.) software. Data are shown as means±SD. Statistical analysis was performed by student t-Test.

Description for E. coli strain ML35: Antimicrobial activity of recombinant tagged hepcidins. E. coli strain ML35 was subjected to CFU assay in order to determine the antimicrobial activity of synthetic hepcidin 25 (s. Hep25) having the sequence os SEQ ID NO. 2, Hep-25His having the sequence of SEQ ID NO. 6, Hep-25MycHis having the sequence of SEQ ID NO. 8, Hep-20MycHis having the sequence of SEQ ID NO. 7 and negative peptide having the sequence SEQ ID NO. 9 at the concentrations indicated for 2 h at 37° C. Sodium phosphate buffer was used as negative control.
Antimicrobial assay—All purified recombinant hepcidins were tested for antibacterial activity against E. coli ML35 and BL21(DE) is a CFU assay (Porter E. M., van Dam E., Valore E. V., Ganz T., Broad-spectrum antimicrobial activity of human intestinal defensin 5, Infect. Immun. 65 (1997) 2396-2401.). Bacterial cell cultures were grown to OD600=0.2 (5×10^7 cfu/ml) and resuspended to a final concentration of 10^6 cfu/ml in 20mM sodium phosphate buffer, pH7.4. Various concentrations of peptides were added to a final volume of 100 μl and after incubation for 2 h at 37° C., surviving cells were plated in triplicates to LB/agar plates.
Antimicrobial activity of recombinant hepcidins—The colony forming unit assay (E. M. Porter, E. van Dam, E. V. Valore, T. Ganz, Broad-spectrum antimicrobial activity of human intestinal defensin 5, Infect. Immun. 65 (1997) 2396-2401) was used to determine the antimicrobial activity of the purified recombinant hepcidin forms against the E. coli strain, ML35. […] Surviving microbes were counted following incubation with various concentrations of recombinant hepcidin preparations, synthetic hepcidin or negative peptide for 2 h at 37° C.

Molecule: CC[C@H](C)[C@@H]1NC(=O)[C@@H](NC(=O)[C@@H](NC(=O)[C@@H]2CCCN2C(=O)[C@H](Cc2ccccc2)NC(=O)[C@H](Cc2c[nH]cn2)NC(=O)[C@@H](NC(=O)[C@@H](N)CC(=O)O)[C@@H](C)O)[C@@H](C)CC)CSSC[C@@H](C(=O)N[C@@H](CCCCN)C(=O)N[C@H](C(=O)O)[C@@H](C)O)NC(=O)[C@@H]2CSSC[C@H](NC(=O)[C@H](Cc3ccccc3)NC1=O)C(=O)N[C@H]1CSSC[C@H](NC(=O)[C@H](CCCCN)NC(=O)[C@H](CO)NC(=O)[C@H](CCCNC(=N)N)NC(=O)[C@H](Cc3c[nH]cn3)NC(=O)[C@@H]3CSSC[C@H](NC(=O)CNC1=O)C(=O)N3)C(=O)NCC(=O)N[C@@H](CCSC)C(=O)N2 [synthetic hepcidin 25, hepcidin 25, reference compound]
- IC50 (E. coli strain ML35; ML35, 2 h): 9 µM
- reduction of TfR1 in comparison to untreated cells (TfR1): 37%±6

Molecule: hep20: hepcidin 20 as tested by Park et al. 2001 (ICIFCCGCCHRSKCGMCCKT; ends and bridges not checked; cysteine pairing not given here; UniProt P81172 65-84, looked up)
- reduction of surviving bacteria ML35p (bacteria ML35p): 1000 fold

Molecule: hep25: hepcidin 25 as tested by Park et al. 2001 (natural, isolated from urine, or synthetic) (DTHFPICIFCCGCCHRSKCGMCCKT; ends and bridges not checked; cysteine pairing not given here; UniProt P81172 60-84, looked up)
- reduction of surviving bacteria ML35p (bacteria ML35p): 1000 fold

Molecule: hepcidin-20 (ICIFCCGCCHRSKCGMCCKT; listed as Homo sapiens)
- concentration at which bactericidal (E. coli strain ML35; CFU assay, 2 h at 37° C., data not shown): higher than 10 mM

Molecule: oligomeric fraction of Hep25-His: oligomer peak of Ni-NTA purified Hep-25His from size exclusion chromatography
- effect on cellular iron metabolism (ferroportin (FPN1)): no effect
